# Assay results: ChEMBL document CHEMBL1201862, “PubChem BioAssay data set” (2004)
# Active and inactive are the calls of the source.
# Experiments:
# [1] = target: Cytochrome P450 2C9 (Homo sapiens, UniProt P11712)
# [2] = target: T1, Cytochrome P450 3A4 (Homo sapiens, UniProt P08684)
# [3] = target: DNA dC->dU-editing enzyme APOBEC-3A (Homo sapiens, UniProt P31941); test: Dose Response confirmation of small molecule APOBEC3A DNA Deaminase Inhibitors via a fluorescence-based single-stranded DNA deaminase assay. [Related pubchem assays (depositor defined):AID493011, AID493024]; format: functional
# [4] = target: T2, Heat shock factor protein 1 (Mus musculus, UniProt P38532); test: enhancement of HSF1-driven luciferase signal – cell-based, NIH3T3, luminescence, dose retest, confirmation (AID 435004); format: functional;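 further: stress induced by proteasome inhibitor MG132 added 30 min after compound; luciferase reporter driven by HSF1 response element in NIH3T3 cells; actives raise luminescence as potentiators of the MG132 stress response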
# T2 sequence (P38532 whole entry): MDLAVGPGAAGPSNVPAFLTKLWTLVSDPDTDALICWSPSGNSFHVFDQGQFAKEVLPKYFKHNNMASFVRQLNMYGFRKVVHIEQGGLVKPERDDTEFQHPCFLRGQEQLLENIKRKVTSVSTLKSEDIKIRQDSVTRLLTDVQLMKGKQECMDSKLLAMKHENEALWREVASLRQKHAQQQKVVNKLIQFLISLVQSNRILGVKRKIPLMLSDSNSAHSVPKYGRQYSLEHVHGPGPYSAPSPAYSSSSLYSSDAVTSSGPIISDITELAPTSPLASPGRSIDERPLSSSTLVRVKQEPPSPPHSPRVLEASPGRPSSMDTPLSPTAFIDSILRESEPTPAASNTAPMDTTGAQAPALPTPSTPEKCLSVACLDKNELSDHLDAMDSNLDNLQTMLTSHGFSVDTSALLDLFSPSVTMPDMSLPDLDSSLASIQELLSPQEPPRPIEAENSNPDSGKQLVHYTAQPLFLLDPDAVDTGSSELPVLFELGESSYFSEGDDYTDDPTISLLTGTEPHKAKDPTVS
# [5] = target: DNA dC->dU-editing enzyme APOBEC-3G (Homo sapiens, UniProt Q9HC16); format: functional;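 further: Dose-response counterscreen measuring inhibition of APOBEC3G DNA deaminase activity, run while confirming APOBEC3A inhibitors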
# [6] = target: T1, Cytochrome P450 3A4; conditions: Potency
# [7] = target: T3, Caspase-6 (Homo sapiens, UniProt P55212); test: inhibition of CASP6 peptide cleavage – biochemical, VEID-R110 fluorescence, cherry-pick, dose response (AID 720632)
# T3 sequence (P55212 whole entry): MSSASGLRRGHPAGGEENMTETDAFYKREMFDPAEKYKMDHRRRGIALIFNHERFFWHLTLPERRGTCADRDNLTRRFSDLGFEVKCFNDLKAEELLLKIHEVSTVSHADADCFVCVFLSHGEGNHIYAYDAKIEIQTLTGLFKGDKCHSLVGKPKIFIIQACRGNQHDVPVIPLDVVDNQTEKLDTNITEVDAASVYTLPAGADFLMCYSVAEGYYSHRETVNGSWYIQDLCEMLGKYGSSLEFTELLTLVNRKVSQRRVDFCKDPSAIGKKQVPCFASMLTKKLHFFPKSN
# [8] = target: T4, RNA-binding protein pos-1 (Caenorhabditis elegans, UniProt G5EF15); test: disruptors of C. elegans POS-1 RNA interaction – biochemical, fluorescence polarization, dose response (AID 1964);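 further: purified POS-1 fused to maltose binding protein made in E. coli; potency of compounds blocking POS-1 binding to fluorescent RNA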
# T4 sequence (G5EF15 whole entry): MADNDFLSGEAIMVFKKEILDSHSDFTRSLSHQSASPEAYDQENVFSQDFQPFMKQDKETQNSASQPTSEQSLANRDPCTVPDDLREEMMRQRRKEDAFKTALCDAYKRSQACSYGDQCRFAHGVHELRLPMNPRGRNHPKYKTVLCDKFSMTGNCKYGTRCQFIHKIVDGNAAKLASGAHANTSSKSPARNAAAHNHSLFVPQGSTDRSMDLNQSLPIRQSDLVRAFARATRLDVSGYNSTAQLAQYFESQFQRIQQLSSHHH
# [9] = target: T5, Zinc finger protein mex-5 (Caenorhabditis elegans, UniProt Q9XUB2); test: potency of MEX-5 RNA-binding blockers – biochemical, C. elegans, fluorescence polarization, dose response (AID 1960)
# T5 sequence (Q9XUB2 whole entry): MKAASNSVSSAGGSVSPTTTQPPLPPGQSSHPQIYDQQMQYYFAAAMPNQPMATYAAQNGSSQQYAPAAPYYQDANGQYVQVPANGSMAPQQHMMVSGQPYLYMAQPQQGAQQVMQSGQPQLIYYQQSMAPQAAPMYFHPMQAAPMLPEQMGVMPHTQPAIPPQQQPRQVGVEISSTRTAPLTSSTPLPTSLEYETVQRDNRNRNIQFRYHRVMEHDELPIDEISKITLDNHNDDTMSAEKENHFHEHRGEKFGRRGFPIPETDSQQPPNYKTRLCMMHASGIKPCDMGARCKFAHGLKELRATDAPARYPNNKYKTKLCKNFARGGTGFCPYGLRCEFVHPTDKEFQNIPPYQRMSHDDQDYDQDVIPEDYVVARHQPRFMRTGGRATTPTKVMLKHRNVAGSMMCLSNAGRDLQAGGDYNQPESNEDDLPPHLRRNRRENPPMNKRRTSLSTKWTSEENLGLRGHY
# [10] = target: T6, Protein skinhead-1 (Caenorhabditis elegans, UniProt P34707); format: functional
# T6 sequence (P34707 whole entry): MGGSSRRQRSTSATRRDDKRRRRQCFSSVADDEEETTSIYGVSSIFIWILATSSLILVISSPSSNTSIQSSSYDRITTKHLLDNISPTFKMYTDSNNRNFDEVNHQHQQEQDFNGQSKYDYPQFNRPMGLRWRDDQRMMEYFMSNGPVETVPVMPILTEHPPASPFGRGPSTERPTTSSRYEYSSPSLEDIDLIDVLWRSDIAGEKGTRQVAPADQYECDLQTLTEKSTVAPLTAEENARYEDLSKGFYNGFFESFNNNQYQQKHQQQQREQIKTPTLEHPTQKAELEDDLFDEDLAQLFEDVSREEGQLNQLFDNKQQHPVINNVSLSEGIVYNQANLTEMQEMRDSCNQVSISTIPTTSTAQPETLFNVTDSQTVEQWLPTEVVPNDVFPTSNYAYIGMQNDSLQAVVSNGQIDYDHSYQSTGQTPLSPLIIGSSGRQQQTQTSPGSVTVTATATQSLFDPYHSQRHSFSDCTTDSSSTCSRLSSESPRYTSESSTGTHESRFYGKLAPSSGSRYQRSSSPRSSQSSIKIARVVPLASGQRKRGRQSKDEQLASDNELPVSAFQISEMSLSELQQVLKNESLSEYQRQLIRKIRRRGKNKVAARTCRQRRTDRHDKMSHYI
# [11] = target: T7, Cytochrome P450 1A2 (Homo sapiens, UniProt P05177);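 further: PubChem cytochrome P450 panel assay, CYP1A2 panel member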
# T7 sequence (P05177 whole entry): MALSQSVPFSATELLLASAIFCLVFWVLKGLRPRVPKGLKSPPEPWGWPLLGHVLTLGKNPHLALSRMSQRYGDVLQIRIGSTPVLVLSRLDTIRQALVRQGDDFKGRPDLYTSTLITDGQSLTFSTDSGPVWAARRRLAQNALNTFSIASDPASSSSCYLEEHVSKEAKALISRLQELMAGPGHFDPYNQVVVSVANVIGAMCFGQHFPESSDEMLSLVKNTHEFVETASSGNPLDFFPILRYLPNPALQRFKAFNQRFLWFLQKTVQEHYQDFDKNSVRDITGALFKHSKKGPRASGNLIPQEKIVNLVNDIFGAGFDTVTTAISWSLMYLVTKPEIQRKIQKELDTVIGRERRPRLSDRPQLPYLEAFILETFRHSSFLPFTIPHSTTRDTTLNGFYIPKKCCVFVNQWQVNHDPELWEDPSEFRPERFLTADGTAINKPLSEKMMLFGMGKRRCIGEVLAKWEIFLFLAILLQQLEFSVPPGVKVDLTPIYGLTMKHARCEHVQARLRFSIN
# [12] = target: Cytochrome P450 2C19 (Homo sapiens, UniProt P33261); test: Cytochrome panel assay with activity outcomes. Panel member name: p450-cyp2c19 Compounds with AC50 equal or less than 10 uM are considered active; format: functional
# Cytochrome P450 2C19, sequence (P33261 whole entry): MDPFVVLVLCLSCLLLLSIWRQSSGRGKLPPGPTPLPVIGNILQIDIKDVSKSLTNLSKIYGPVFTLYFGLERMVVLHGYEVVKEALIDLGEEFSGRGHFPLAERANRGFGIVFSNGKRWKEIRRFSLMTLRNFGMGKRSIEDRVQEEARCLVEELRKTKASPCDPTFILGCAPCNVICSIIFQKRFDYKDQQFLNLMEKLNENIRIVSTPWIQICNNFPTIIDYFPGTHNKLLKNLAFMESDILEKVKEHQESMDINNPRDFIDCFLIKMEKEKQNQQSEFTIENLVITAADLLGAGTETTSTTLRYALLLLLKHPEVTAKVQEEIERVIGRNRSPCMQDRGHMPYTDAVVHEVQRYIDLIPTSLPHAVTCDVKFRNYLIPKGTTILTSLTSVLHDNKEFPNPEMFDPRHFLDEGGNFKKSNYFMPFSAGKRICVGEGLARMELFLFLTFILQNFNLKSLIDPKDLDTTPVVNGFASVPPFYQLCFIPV
# Cytochrome P450 2C9, sequence (P11712 whole entry): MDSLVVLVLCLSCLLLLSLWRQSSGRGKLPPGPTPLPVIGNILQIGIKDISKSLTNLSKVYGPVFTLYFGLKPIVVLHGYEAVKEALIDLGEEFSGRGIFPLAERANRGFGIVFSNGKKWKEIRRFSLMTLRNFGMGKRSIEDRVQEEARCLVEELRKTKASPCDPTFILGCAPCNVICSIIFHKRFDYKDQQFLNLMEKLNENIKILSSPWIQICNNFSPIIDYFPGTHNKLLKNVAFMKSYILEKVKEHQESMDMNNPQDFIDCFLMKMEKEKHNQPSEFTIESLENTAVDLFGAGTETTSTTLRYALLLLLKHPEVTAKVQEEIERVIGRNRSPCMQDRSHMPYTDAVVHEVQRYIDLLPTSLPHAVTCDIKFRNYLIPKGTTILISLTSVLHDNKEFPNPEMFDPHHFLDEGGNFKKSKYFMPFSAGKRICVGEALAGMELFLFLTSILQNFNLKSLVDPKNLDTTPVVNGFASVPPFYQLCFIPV
# T1 sequence (P08684 whole entry): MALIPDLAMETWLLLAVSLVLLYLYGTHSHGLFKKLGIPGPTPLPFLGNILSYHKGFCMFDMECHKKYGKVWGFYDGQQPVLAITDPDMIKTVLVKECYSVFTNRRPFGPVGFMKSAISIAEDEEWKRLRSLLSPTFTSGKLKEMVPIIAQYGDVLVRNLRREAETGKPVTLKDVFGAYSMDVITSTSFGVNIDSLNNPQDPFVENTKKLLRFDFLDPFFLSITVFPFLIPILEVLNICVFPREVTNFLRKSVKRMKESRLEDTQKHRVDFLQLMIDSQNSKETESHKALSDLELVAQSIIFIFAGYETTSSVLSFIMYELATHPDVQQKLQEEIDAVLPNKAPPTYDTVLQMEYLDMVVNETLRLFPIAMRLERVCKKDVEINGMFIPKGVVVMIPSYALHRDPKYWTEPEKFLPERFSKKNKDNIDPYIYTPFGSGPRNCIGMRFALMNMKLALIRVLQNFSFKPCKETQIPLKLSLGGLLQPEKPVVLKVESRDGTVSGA
# DNA dC->dU-editing enzyme APOBEC-3G, sequence (Q9HC16 whole entry): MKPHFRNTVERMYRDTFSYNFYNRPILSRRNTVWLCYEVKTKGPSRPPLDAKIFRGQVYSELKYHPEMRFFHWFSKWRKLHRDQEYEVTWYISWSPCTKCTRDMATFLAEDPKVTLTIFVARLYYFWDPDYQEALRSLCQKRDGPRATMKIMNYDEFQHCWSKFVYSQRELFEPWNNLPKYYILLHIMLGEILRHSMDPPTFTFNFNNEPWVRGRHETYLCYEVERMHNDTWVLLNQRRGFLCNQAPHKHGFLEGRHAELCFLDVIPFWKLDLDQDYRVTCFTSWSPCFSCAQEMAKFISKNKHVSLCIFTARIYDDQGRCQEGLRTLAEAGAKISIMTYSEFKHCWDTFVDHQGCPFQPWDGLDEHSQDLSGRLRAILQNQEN
# DNA dC->dU-editing enzyme APOBEC-3A, sequence (P31941 whole entry): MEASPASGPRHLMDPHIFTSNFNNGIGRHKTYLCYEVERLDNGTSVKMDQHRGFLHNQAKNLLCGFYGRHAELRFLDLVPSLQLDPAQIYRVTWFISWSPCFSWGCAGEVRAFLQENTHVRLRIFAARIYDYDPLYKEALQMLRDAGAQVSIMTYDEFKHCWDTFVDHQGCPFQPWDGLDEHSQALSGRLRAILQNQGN
SMILES,AC50 [1],AC50 [6],also measured
O=C(O)CCCC[C@H]1CCSS1,inconclusive,,
CCN(CC)CCN1C(=O)C(O)=C(C(=O)c2ccc(OC)cc2)C1c1cccs1 (centres undefined),inconclusive,,AC50 [2]: 17.8 µM (inconclusive)
Cc1cccc(C)c1OCC(=O)NCc1nnc(SCC(=O)NC2CCCCC2C)n1C (centres undefined),,,IC50 [3]: 2.78 µM (active); EC50 [4]: > 260 µM (inactive); IC50 [5]: 6.2 µM (active)
O=C1C=C2C=CC3C[C@@]2(O1)C1CCCCN31 (some centres undefined),,31.6 µM (inconclusive),
O=C(O)CCC(=O)NCc1ccc2[nH]c3c(c2c1)CCCC3,,,AC50 [7]: 25.6 µM (active); EC50 [8]: 82.1 µM (active); EC50 [9]: 112 µM (active)
COc1ccc(/C=C(\C#N)C(=O)NCC2CCCO2)cc1OC (centres undefined),inconclusive,,IC50 [10]: > 100 µM (inactive); AC50 [11]: 22.4 µM (inconclusive); EC50 [8]: > 300 µM (not active); EC50 [9]: > 300 µM (not active)
COc1ccc(Br)cc1/C=C/C(=O)Nc1c(C)cccc1C,inconclusive,,AC50 [11]: 22.4 µM (inconclusive)
CNc1ccnc(-c2c(C)noc2C)n1,inconclusive,,AC50 [2]: 39.8 µM (inconclusive); AC50 [12]: inconclusive
N#C/C(=C\c1c[nH]nc1-c1ccccc1)C(=O)NC1CCCCCC1,inconclusive,,
COc1ccc(-c2ccccc2C2NC(C(=O)O)CCC2C)cc1 (centres undefined),,5.01 µM (inconclusive),
Cc1c(N=C=O)cccc1N=C=O,,15.8 µM (inconclusive),
CCN(CC)S(=O)(=O)c1cc(C(=O)OC)ccc1Cl,inconclusive,,
O=C1OCc2cccc3cccc1c23,inconclusive,,AC50 ([12]; read-out: AC50): 39.8 µM (inconclusive)
CC(=O)N(C)c1ccc(NC(=O)Cc2cccs2)cc1,,,AC50 [7]: 31.8 µM (active)
c1ccc(-c2ccc(CN3C[C@@H]4C(c5ccccc5)C5(c6cccnc6)CC4(C5)[C@H]3c3ccccc3)cc2)cc1 (some centres undefined),,15.8 µM (inconclusive),
CCOc1cc(OCC)c(C(C)=O)cc1OCC,,15.8 µM (inconclusive),
CSc1ccccc1NC(=O)CN(C)C(=O)COc1cccc2cccnc12,,,AC50 [7]: 29.5 µM (active)
O=C(O)C/C(=C\c1cc(Cl)c2c(c1)OCO2)c1nc2ccccc2s1,,,AC50 [7]: 7.56 µM (active)
COc1cc2c(Cc3c4c5c(cc(OC)c(OC)c5c5c(OC)c(OC)ccc35)CCN4C)c3c4c(cc(OC)c(OC)c4c2cc1OC)CCN3C,,3.16 µM (inconclusive),
CC(C)(C)C(=O)NNC(=O)CCCOc1ccc(Cl)cc1Cl,inconclusive,,AC50 [11]: 25.1 µM (inconclusive)
Cc1nc(NC2CCCCC2)c2nc(-c3ccccc3)n(CCCN(C)C)c2n1,,20 µM (inconclusive),
Cc1c(C(=O)Nc2ccc(OCc3ccccc3)cc2)cccc1[N+](=O)[O-],inconclusive,,
COC(=O)CNC(=O)[C@@]1(C)C=C[C@@H](Cc2ccccc2)N1C(C)=O,,20 µM (inconclusive),
Cc1[nH]c(=O)c(C(=O)/C=C/c2ccccc2F)c2c1CCCC2,inconclusive,,
O=Nc1ccc(Nc2ccccc2)cc1,,20 µM (inconclusive),
COC(=O)c1cccc(NC(=O)/C=C/c2cccc([N+](=O)[O-])c2)c1,inconclusive,,AC50 ([12]; read-out: AC50): 5.01 µM (inconclusive); AC50 [11]: 2.24 µM (inconclusive)
COC(=O)CC1[C@@]2(C)C[C@]34OC5(C)OC6(C7CC(=O)OC(c8ccoc8)[C@]7(C)CCC6(O5)[C@]13C)C(OC(C)=O)[C@]4(OC(C)=O)C2OC(C)=O (some centres undefined),,20 µM (inconclusive),
CN(C)c1ccc2c(c1)[C@@H]1C[C@@H](CC(=O)N3CCOCC3)O[C@@H](CO)[C@@H]1O2,,,AC50 [7]: 42.4 µM (active)
